# From ChEMBL document CHEMBL4725221, “Thiazoles, Their Benzofused Systems, and Thiazolidinone Derivatives: Versatile and Promising Tools to Combat Antibiotic Resistance” (J Med Chem, 2020)
# Columns and labels:
# [1] = test system: Pseudomonas aeruginosa; test: Antibacterial activity against Pseudomonas aeruginosa ATCC 15442 by CLSI protocol based cup-plate agar diffusion method; assay type: functional
# [2] = test system: Staphylococcus aureus; test: Antibacterial activity against Staphylococcus aureus ATCC 6538 by CLSI protocol based microdilution method; assay type: functional, organism-based
# [3] = test system: Staphylococcus aureus; test: Antibacterial activity against Staphylococcus aureus ATCC 25923 by CLSI protocol based microdilution method; assay type: functional, organism-based
# [4] = test system: Enterococcus faecalis; test: Antibacterial activity against Enterococcus faecalis ATCC 29212 after 20 hrs by cup plate method; assay type: functional
# [5] = test system: Escherichia coli; test: Antibacterial activity against Escherichia coli ATCC 25922 after 20 hrs by cup plate method; assay type: functional
# [6] = test system: Bacillus subtilis; test: Antibacterial activity against Bacillus subtilis ATCC 10400 after 20 hrs by cup plate method; assay type: functional
# [7] = test system: Staphylococcus aureus; test: Antibacterial activity against Staphylococcus aureus ATCC 29213 after 20 hrs by cup plate method; assay type: functional
# [8] = test system: Staphylococcus saprophyticus; test: Antibacterial activity against Staphylococcus saprophyticus; assay type: functional
# [9] = test system: Enterococcus faecalis; test: Antibiofilm activity against Enterococcus faecalis; assay type: functional
# [10] = test system: Enterococcus faecalis; test: Antibacterial activity against Enterococcus faecalis; assay type: functional
# [11] = test system: Enterococcus faecalis; test: Antibacterial activity against Enterococcus faecalis ATCC 19433 by NCCLS protocol based broth microdilution method
# [12] = test system: Staphylococcus aureus; test: Antibacterial activity against methicillin resistant Staphylococcus aureus 090 by NCCLS protocol based broth microdilution method; assay type: functional
# [13] = test system: Bacillus subtilis; test: Antibacterial activity against Bacillus subtilis; assay type: functional
# [14] = test system: Pseudomonas aeruginosa; test: Antibacterial activity against Pseudomonas aeruginosa; assay type: functional
# [15] = test system: Klebsiella pneumoniae; test: Antibacterial activity against Klebsiella pneumoniae; assay type: functional
# [16] = test system: Staphylococcus aureus; test: Antibacterial activity against Staphylococcus aureus; assay type: functional
# [17] = test system: Staphylococcus aureus; test: Antibacterial activity against Staphylococcus aureus ATCC 29213 by NCCLS protocol based broth microdilution method; assay type: functional
# [18] = test system: Staphylococcus aureus; test: Antibacterial activity against Staphylococcus aureus MTCC 3160 after 24 hrs; assay type: functional
# [19] = test system: Escherichia coli; test: Antibacterial activity against Escherichia coli MTCC 443 after 24 hrs; assay type: functional
# [20] = test system: Bacillus subtilis; test: Antibacterial activity against Bacillus subtilis MTCC 441 after 24 hrs; assay type: functional
# [21] = test system: Micrococcus luteus; test: Antibacterial activity against Micrococcus luteus; assay type: functional
# [22] = test system: Staphylococcus aureus; test: Antibacterial activity against Staphylococcus aureus MLS16; assay type: functional
# [23] = test system: Escherichia coli; test: Antibacterial activity against Escherichia coli; assay type: functional
# [24] = test system: Raoultella planticola; test: Antibacterial activity against Klebsiella planticola; assay type: functional
structure (smiles),measurement,setting,value
NCCn1cc(-c2nc(-c3c[nH]c4ccccc34)cs2)c2cc(F)ccc21,MIC,[1],4.5 µg/mL
same,IC50,[2],6.3 µg/mL
same,IC50,[3],1.5 µg/mL
COc1ccc(-c2n[nH]c(N3C(=O)CS[C@H]3c3ccc(Cl)cc3)n2)cc1,MIC,[4],16 µg/mL
same,MIC,[5],16 µg/mL
same,MIC,[6],16 µg/mL
same,MIC,[7],8 µg/mL
COc1ccc(-c2n[nH]c(N3C(=O)CS[C@H]3c3ccc([N+](=O)[O-])cc3)n2)cc1,MIC,[5],32 µg/mL
same,MIC,[7],16 µg/mL
Clc1ccc(-c2csc(-c3cccc(-c4csc(-c5ccccc5)n4)c3)n2)cc1,MIC,[8],2 µg/mL
same,MBIC,[9],0.016 mg/mL
same,MIC,[10],32 µg/mL
Cn1cc(-c2csc(-c3cn(CCN)c4ccc(F)cc34)n2)c2ccccc21,MIC,[1],3.9 µg/mL
same,IC50,[2],5.2 µg/mL
same,IC50,[3],0.5 µg/mL
Cl.Nc1ccc2sc(NC(=O)c3sc4ccccc4c3Cl)nc2c1,MIC,[11],8 µg/mL
COc1ccc(/C=N/Nc2nc3cccc(C)c3s2)c(OC)c1,MIC,[12],22 µg/mL
Fc1ccc(-c2csc(-n3nc(-c4ccc(F)cc4)cc3-c3cc4ccccc4[nH]3)n2)cc1,MIC,[13],50 µg/mL
same,MIC,[14],25 µg/mL
same,MIC,[15],25 µg/mL
same,MIC,[16],50 µg/mL
COc1ccc(-c2n[nH]c(N3C(=O)CS[C@H]3c3ccc(OC)cc3)n2)cc1,MIC,[5],6 µg/mL
same,MIC,[7],128 µg/mL
O=[N+]([O-])c1ccc(-c2csc(-c3cccc(-c4csc(-c5ccccc5)n4)c3)n2)cc1,MIC,[8],32 µg/mL
same,MBIC,[9],0.002 mg/mL
same,MIC,[10],62 µg/mL
Cl.Cl.Nc1ccc2sc(NC(=O)c3sc4cc(N)ccc4c3Cl)nc2c1,MIC,[11],16 µg/mL
COc1ccc(-c2csc(-c3cccc(-c4csc(-c5ccccc5)n4)c3)n2)cc1,MIC,[8],125 µg/mL
same,MBIC,[9],0.004 mg/mL
same,MIC,[10],62 µg/mL
FC(F)(F)c1ccc2nc(S)sc2c1,MIC,[17],3.12 µg/mL
Cc1cccc2nc(N/N=C/c3ccc(O)cc3O)sc12,MIC,[12],20 µg/mL
CCN(CC)c1ccc(C2SCC(=O)N2NC(=O)CNC(=O)c2ccccc2)cc1 (stereo unspecified),MIC,[18],12.4 µg/mL
same,MIC,[19],3.07 µg/mL
same,MIC,[20],12.4 µg/mL
Cc1cccc2nc(N/N=C/c3cc(O)c(O)c(O)c3)sc12,MIC,[12],18 µg/mL
O=C(CNC(=O)c1ccccc1)NN1C(=O)CSC1c1ccc(Br)cc1 (stereo unspecified),MIC,[18],6.51 µg/mL
same,MIC,[19],12.2 µg/mL
same,MIC,[20],47.8 µg/mL
Cc1sc(-c2cccc(-c3csc(-c4ccccc4)n3)c2)nc1-c1ccccc1,MIC,[8],> 1000 µg/mL
same,MBIC,[9],0.004 mg/mL
same,MIC,[10],250 µg/mL
O=C(CNC(=O)c1ccccc1)NN1C(=O)CSC1c1cccc([N+](=O)[O-])c1 (stereo unspecified),MIC,[18],25.2 µg/mL
same,MIC,[19],25.2 µg/mL
same,MIC,[20],12.4 µg/mL
c1ccc(-c2csc(-c3cccc(-c4csc(-c5ccccc5)n4)c3)n2)cc1,MIC,[8],32 µg/mL
same,MBIC,[9],0.002 mg/mL
same,MIC,[10],125 µg/mL
COc1ccc(-c2csc(N/N=C/c3cn(-c4nc5ccccc5s4)nc3-c3cc4ccccc4oc3=O)n2)cc1,MIC,[21],7.8 µg/mL
same,MIC,[22],7.8 µg/mL
same,MIC,[23],7.8 µg/mL
same,MIC,[13],7.8 µg/mL
same,MIC,[24],7.8 µg/mL
same,MIC,[14],7.8 µg/mL
same,MIC,[16],7.8 µg/mL
Nc1ccc2c(Cl)c(C(=O)Nc3nc4ccccc4s3)sc2c1,MIC,[11],8 µg/mL
O=C(N[C@H](CO)[C@H](O)c1ccc([N+](=O)[O-])cc1)C(Cl)Cl [CHLORAMPHENICOL],MIC,[13],6.25 µg/mL
same,MIC,[14],6.25 µg/mL
same,MIC,[15],12.5 µg/mL
same,MIC,[16],6.25 µg/mL
O=[N+]([O-])c1ccc(-c2cc(-c3cc4ccccc4[nH]3)n(-c3nc(-c4ccc(F)cc4)cs3)n2)cc1,MIC,[13],25 µg/mL
same,MIC,[14],6.25 µg/mL
same,MIC,[15],12.5 µg/mL
same,MIC,[16],25 µg/mL
NCCn1cc(-c2nc(-c3c[nH]c4ccccc34)cs2)c2ccccc21,MIC,[1],22.7 µg/mL
same,IC50,[2],9.7 µg/mL
same,IC50,[3],4.7 µg/mL
COc1ccc(-c2n[nH]c(N3C(=O)CS[C@H]3c3ccc(F)cc3)n2)cc1,MIC,[5],64 µg/mL
same,MIC,[7],128 µg/mL
Cl.Nc1ccc2c(Cl)c(C(=O)Nc3nc4ccccc4s3)sc2c1,MIC,[11],16 µg/mL
O=C(CNC(=O)c1ccccc1)NN1C(=O)CSC1c1ccccc1Cl (stereo unspecified),MIC,[18],12.5 µg/mL
same,MIC,[19],6.24 µg/mL
same,MIC,[20],6.24 µg/mL
N#Cc1ccc(-c2csc(-c3cccc(-c4csc(-c5ccccc5)n4)c3)n2)cc1,MIC,[8],16 µg/mL
same,MBIC,[9],0.002 mg/mL
same,MIC,[10],62 µg/mL
COCCn1cc(-c2nc(-c3cn(C)c4ccccc34)cs2)c2cc(Br)ccc21,MIC,[1],19.1 µg/mL
same,IC50,[2],11.2 µg/mL
same,IC50,[3],0.95 µg/mL
O=[N+]([O-])c1ccc2nc(S)sc2c1,MIC,[17],12.5 µg/mL
Cc1ccc(-c2csc(N/N=C/c3cn(-c4nc5ccccc5s4)nc3-c3cc4ccccc4oc3=O)n2)cc1,MIC,[21],3.9 µg/mL
same,MIC,[22],7.8 µg/mL
same,MIC,[23],7.8 µg/mL
same,MIC,[13],1.9 µg/mL
same,MIC,[24],3.9 µg/mL
same,MIC,[14],3.9 µg/mL
same,MIC,[16],7.8 µg/mL
O=c1oc2ccccc2cc1-c1nn(-c2nc3ccccc3s2)cc1/C=N/Nc1nc(-c2ccc(Br)cc2)cs1,MIC,[21],7.8 µg/mL
same,MIC,[22],7.8 µg/mL
same,MIC,[23],7.8 µg/mL
same,MIC,[13],3.9 µg/mL
same,MIC,[24],7.8 µg/mL
same,MIC,[14],> 125 µg/mL
same,MIC,[16],7.8 µg/mL
NCCn1cc(-c2nc(-c3c[nH]c4ccccc34)cs2)c2cc(Br)ccc21,MIC,[1],7.8 µg/mL
same,IC50,[2],3.3 µg/mL
same,IC50,[3],4.4 µg/mL
COCCn1cc(-c2nc(-c3c[nH]c4ccccc34)cs2)c2cc(Br)ccc21,MIC,[1],4.4 µg/mL
same,IC50,[2],9.4 µg/mL
same,IC50,[3],0.79 µg/mL
COc1ccc(-c2n[nH]c(N3C(=O)CS[C@H]3c3ccc(C)cc3)n2)cc1,MIC,[5],32 µg/mL
same,MIC,[7],64 µg/mL
O=C(Nc1nc2ccccc2s1)c1sc2cc([N+](=O)[O-])ccc2c1Cl,MIC,[11],16 µg/mL
Cc1ccc(C2SCC(=O)N2NC(=O)CNC(=O)c2ccccc2)cc1 (stereo unspecified),MIC,[18],12.6 µg/mL
same,MIC,[19],12.6 µg/mL
same,MIC,[20],12.6 µg/mL
